Data published in patent US20080280939A1, “Combination of Organic Compounds” (priority 2004, published 2008).

What was measured:
[1] = 4-week toxicity study in rats; assay type: in vivo
Protocol: (§1) Rapamycin or derivatives thereof are well tolerated at dosages required for use in accordance with the present invention. For example, the NTEL for Compound A in a 4-week toxicity study is 0.5 mg/kg/day in rats and 1.5 mg/kg/day in monkeys.

[2] = 4-week toxicity study in monkeys; assay type: in vivo
Protocol: as §1

With `CO[C@H]1C[C@@H]2CC[C@@H](C)[C@@](O)(O2)C(=O)C(=O)N2CCCC[C@H]2C(=O)O[C@H]([C@H](C)C[C@@H]2CC[C@@H](OCCO)[C@H](OC)C2)CC(=O)[C@H](C)/C=C(\C)[C@@H](O)[C@@H](OC)C(=O)[C@H](C)C[C@H](C)/C=C/C=C/C=C/1C` [Compound A, 40-0-(2-hydroxyethyl)-rapamycin] the NTEL [1] was 0.5 mg/kg/day and the NTEL [2] was 1.5 mg/kg/day.
